Test results reported in ChEMBL document CHEMBL3507680, “University of Dundee, Gates Library screen for HepG2 cell viability”.

Experiment: Human HepG2 cell viability assay in 384 well format
Assay type: toxicity, cell-based
Parameters: dose 125 nL, time 70.5 hour; concentration not given beside the values
Conditions: HepG2 cells, read-out: Inhibition

Row | SMILES | cytotoxicity at 70.5 h [%]
1 | COc1ccccc1Oc1ncccc1CNC(=O)CN1CCCC1=O | -4.31
2 | OCc1ccc(-c2nccn2CCc2nc3c(s2)CCCC3)o1 | 9.89
3 | CCCc1nnc(N2CCC(N3CCCCCC3)CC2)o1 | -15.8
4 | CC(C)Oc1cc(N2CCCC(O)C2)nc(N)n1 (stereo not given) | 7.95
5 | O=C1NC2(CCN(CCc3ccccc3)CC2)CC1c1ccccc1 (stereo not given) | -8.33
6 | CCCc1nnc(N(C)CC2CCN(CC(C)C)CC2)o1 | -7.76
7 | COc1ccc(C(=O)NC2CC2)c(OC2CCN(C3CCC3)CC2)c1 | -3.47
8 | Cc1nccc(N[C@H]2CN(C(=O)C3(C#N)CCOCC3)C[C@@H]2C(C)C)n1 | 12
9 | COc1ccc(CCC2CCCN(CC(=O)O)C2)cc1 (stereo not given) | -6.84
10 | CC1CN(CC(=O)NCCc2ccncc2)Cc2ccccc2O1 (stereo not given) | -7.7
11 | CC(=O)N1C[C@@H]2CC[C@H](C1)N(S(=O)(=O)c1cc(F)ccc1C)C2 | -10.6
12 | CC[C@@]1(O)CCN(C(=O)CCNC(=O)c2ccc(F)cc2)C[C@H]1O | -5.99
13 | Cc1ccc2[nH]c(CN(C)Cc3ccccc3C(=O)O)nc2c1 | -7.29
14 | Nc1nc(NCCc2[nH]nc3c2CCCC3)cc(N2CCOCC2)n1 | -6.18
15 | CC(C)[C@@H]1CN(c2ccc(C(F)(F)F)cn2)C[C@H]1NS(C)(=O)=O | 21.5
16 | CCN1CCC(N2C[C@H]3OC(=O)N(CCc4cccc(Cl)c4)[C@H]3C2)CC1 | -0.155
17 | c1cc(-c2cncnc2)cc(-c2ccn(CC3CCNC3)n2)c1 (stereo not given) | -15.7
18 | CC/C(C)=C/CCN1CCN(C)C2(CCNC(=O)CC2)C1 (stereo not given) | -6.34
19 | c1ccc(-c2cc(CN3C[C@H]4CC[C@H]3C4)on2)cc1 | -4.67
20 | CSc1ccc(-c2nc(CN3CCCC(CNC(C)=O)C3)c(C)o2)cc1 (stereo not given) | -3.75
21 | Cc1ccn2c(F)c(C(=O)N3CCC4(CCCN(C)C4=O)C3)nc2c1 (stereo not given) | -8.44
22 | CCOc1ccc(CCCC(=O)N2CCC(C(=O)NC)C2)cc1C (stereo not given) | -8.84

Row | SMILES | cytotoxicity at 70.5 h [%]
23 | Cc1cc(C)cc(CN2CCN(C(=O)COCC3CCCO3)CC2=O)c1 (stereo not given) | -5.03
24 | Cn1nnnc1SCCNC(=O)C1CCN(C(=O)C2CC2)CC1 | 24.5
25 | CC(NC(=O)c1cn(CCC2CCCCC2)nn1)c1cnn(C)c1 (stereo not given) | 20.4
26 | COc1cc(Cc2nc3c([nH]2)CC(C)(C)CNC3=O)cc(OC)c1 | 8.47
27 | CC(C(=O)N1CCn2cncc2C1)N1C[C@@H](C)O[C@@H](C)C1 (stereo not given in full) | 0.983
28 | Cc1cc(C(=O)NCc2cccnc2N2CCCC(O)C2)[nH]n1 (stereo not given) | -16.1
29 | O=C(CSc1ccccc1)N1C[C@H]2CC[C@@H]1CN(Cc1ccncc1)C2 | -4.9
30 | CCSc1ncc(CN(Cc2cnn(C)c2)CC(C)C)cn1 | -4.66
31 | Cc1cc(C(F)(F)F)cc(N2C[C@@H](CN(C)CCO)[C@@H](CO)C2)n1 | 2.18
32 | COC(=O)c1cc(C)nc(N2CCN(Cc3ccn(C(C)C)c3)CC2)n1 | -18.7
33 | Cc1ocnc1C(=O)N1CCN(CCOc2ccccc2)CC1 | -10.4
34 | Cc1ccccc1[C@@H]1CN(Cc2nc3ncccn3n2)C[C@H]1C(=O)O | 3.89
35 | CN(C)S(=O)(=O)N1C[C@@H]2CC[C@H](C1)N(Cc1ccc(F)c(F)c1)C2 | 4.72
36 | CCN(Cc1nccn1C)C(=O)c1ccc(NCC(C)C)nc1 | -6.64
37 | CC(C)c1nnc2sc(CC3CN(C(C)C)CCO3)nn12 (stereo not given) | -7.69
38 | COc1ccc(F)cc1CN1CCCn2nc(CNS(C)(=O)=O)cc2C1 | -5.04
39 | Cc1noc(C)c1CNC(=O)c1cn(CCC2CCCCN2)nn1 (stereo not given) | -0.767
40 | COC(=O)CNC(=O)C1(N(C)Cc2ccccc2)Cc2ccccc2C1 | -8.63
41 | COc1cccc(CN2CCC(O)(c3ccc(C)cn3)CC2)c1OC | 4.46
42 | COc1cc(F)ccc1-c1cnc(N)cn1 | -13.6
43 | CCn1c(CN(C)C)nnc1C1CCN(Cc2ccncc2)CC1 | -6.3
44 | O=C(NCCc1cccs1)C1(N2CCCCC2)Cc2ccccc2C1 | -7.46

Row | SMILES | cytotoxicity at 70.5 h [%]
45 | Nc1nc2c(c(NCC(c3cccnc3)N3CCOCC3)n1)CCNC2 (stereo not given) | -10.5
46 | CCn1nc(C)c(CN2CCC(c3ccc(C(=O)O)cc3)C2)c1C (stereo not given) | -2.74
47 | Cc1c(CNCC(C)Oc2cccnc2)c2ccccc2n1CC(N)=O (stereo not given) | 2.14
48 | Cc1nc(Cn2c(=O)cnc3ccccc32)n(C)n1 | -24.2
49 | Cn1c(Cn2ccnc2)nnc1C1CCN(C(=O)c2ccncc2)CC1 | -5.75
50 | Cc1nc(CCN)cc(N2CCC(O)(c3ccccc3)C2)n1 (stereo not given) | -4.16
51 | CC(C)=CCCN1CCN(C)C2(CCC(=O)N(C)CC2)C1 (stereo not given) | -6.95
52 | Cc1ccc(C)c(CN2CCCn3nc(CNS(C)(=O)=O)cc3C2)c1 | 15.4
53 | CCN1CC(C(=O)NCc2cccc(SC)c2)CC1=O (stereo not given) | 18
54 | CCCn1cc(NC(=O)c2cccc(CN3CC=CC3)c2)nn1 | 45.4
55 | CN1C(=O)C2(CCCN(C(=O)c3cccnc3O)C2)c2ccccc21 (stereo not given) | 21
56 | CC(C)c1noc(Cn2ncc3ccccc3c2=O)n1 | -7.17
57 | Cc1ccc(CN2CCN(C(=O)CCc3nc(Cl)n[nH]3)CC2=O)cc1 | -14.2
58 | CC(=O)N[C@@H]1C[C@H](Cc2ccccc2)O[C@H](c2ccc(C(=O)O)cc2)C1 | -6.19
59 | O=C(N[C@@H]1CCNC[C@H]1O)c1ccc(F)c(F)c1 | -5.14
60 | CCc1ccc2nc(C)cc(C(=O)NCc3csc(N(C)C)n3)c2c1 | 16.3
61 | C=C(C)COc1ccccc1CNCCc1cc(O)nc(C)n1 | -2.32
62 | Cc1nc(CC(=O)N2CCCC(N(C)Cc3ccccc3)C2)cs1 (stereo not given) | 1.48
63 | COc1ccc(Oc2ncccc2C(N)=O)cc1CN1CCCC1 | -7.33
64 | CC[C@@]1(O)CCN(c2ncc(Cl)cc2C(F)(F)F)C[C@H]1O | 20.8
65 | O=C1O[C@@H]2CN(C3CCOCC3)C[C@@H]2N1CCc1cccc(Cl)c1 | -1.7
66 | CCCN1CCC(CC(=O)NCc2cc(C)nn2C)CC1 | -7.34

Row | SMILES | cytotoxicity at 70.5 h [%]
67 | CC1(C)CNC(=O)c2nc(C3CCCN(S(C)(=O)=O)C3)[nH]c2C1 (stereo not given) | -6.33
68 | COCCC1(C(=O)O)CCCN(c2cc(C)c3ccccc3n2)C1 (stereo not given) | -8.76
69 | Cc1ccccc1[C@@H]1CN(Cc2c(C)noc2C)C[C@H]1C(=O)O | 21.7
70 | COCCN(C)C[C@H]1C[C@H](CO)CN(C(=O)c2ccn(C)c(=O)c2)C1 | -9.68
71 | CCCc1cc(C(=O)N(C)Cc2cccc3cnccc23)n(C)n1 | -2.24
72 | Cc1nc(CN)cc(N2CCC(O)(c3ccc(Cl)cc3)CC2)n1 | -1.91
73 | Cc1noc(C)c1CN1C[C@@H](NC(=O)N(C)C)[C@H](C(C)C)C1 | -6.75
74 | COC(=O)[C@@H]1CCCN1C(=O)c1cn(CCCc2ccccc2)nn1 | -19.4
75 | COc1cccc(CN2CCN(C(=O)Nc3nc(C)ns3)CC2=O)c1 | -0.713
76 | Cc1nc(N(C)Cc2cccc(O)c2)nc2cc(S(C)(=O)=O)ccc12 | -7.8
77 | CC(C)c1cc(CN(C)C(=O)C(C)N2CCc3ccccc3C2)no1 (stereo not given) | 34.4
78 | CC(C)C1CN(c2nccc(N)n2)CCC(=O)N1Cc1ccc(F)cc1 (stereo not given) | -8.72
79 | Oc1cc(CN2CCCCC2c2cccnc2)nc2c(F)cccc12 (stereo not given) | -2.95
80 | CC(C)(C)c1ccc(OCc2nc3c(c(=O)[nH]2)CCNC3)cc1 | -7.79
81 | CCC(CO)NC(=O)c1cc(COc2ccc(OC)cc2Cl)[nH]n1 (stereo not given) | -10.5
82 | COc1ccc(OC)c2c(C)cc(N(C)CCO)nc12 | 16.9
83 | CCC(C)N(Cc1cnc(OC)nc1)Cc1ccsc1 (stereo not given) | -3.9
84 | Clc1cc(N2CCC(N3CCCC3)CC2)nc2[nH]ccc12 | -2.57
85 | CC(C)C1=NOC(c2nc(-c3cccc(Cl)c3)no2)C1 (stereo not given) | 8.08
86 | COc1cccc(C(=O)N2CCc3c(nc(N)[nH]c3=O)C2)c1C | 1.02
87 | Cn1cc(Cl)c(C(=O)N2CCC(N3CCc4ccccc4C3)CC2)n1 | -6.46
88 | CCN1CCCC(C)(C(=O)NCc2nncn2CCc2ccccc2)C1 (stereo not given) | -8.53

Row | SMILES | cytotoxicity at 70.5 h [%]
89 | NC1(C(=O)N2CCC(c3cc(-c4ccccc4Cl)n[nH]3)CC2)CCC1 | 46.9
90 | COc1ccc2cc(C3CN(C(=O)CCNC(C)=O)CCO3)ccc2c1 (stereo not given) | 2.84
91 | COc1cccc2c1OCC(C(=O)N(Cc1ccncc1)CC(C)C)C2 (stereo not given) | 15.1
92 | c1ccc(CN2CCCC(CNc3ncnc4c3CCNCC4)C2)cc1 (stereo not given) | -6.09
93 | CCCc1nc(N(C)CCc2noc(C(C)C)n2)c2cnn(C)c2n1 | 5.48
94 | CC(C)C(=O)N1CCC(CNc2nc(C(C)C)nc3c2cnn3C)CC1 | -9.27
95 | COc1ccnc(CN(C)C(=O)CSc2nnc(N)s2)c1 | -5.2
96 | Cc1nc(N)sc1C(=O)N1CCCC(COc2ccc(F)cc2)C1 (stereo not given) | -0.394
97 | CCNC(=O)[C@@H]1C[C@@H](NC(=O)c2ccc(C#N)cc2)CN1CCCSC | 17.5
98 | CC1(C)CC(C(=O)N2CCC3(CCC(=O)N(C4CC4)C3)CC2)CCO1 (stereo not given) | -4.55
99 | O=C(NCCc1csc(-c2cnccn2)n1)c1cnn[nH]1 | 21.3
100 | O=C(CCN1CCOC(C(F)(F)F)C1)NCc1cccc(Cl)c1 (stereo not given) | -5.6
101 | O=C(O)[C@@H]1CN(C(=O)CSCC2CC2)C[C@H]1c1ccccn1 | -1.99
102 | CCCc1ccc(CN2CCC3(CCC(=O)N(CCO)C3)CC2)o1 | -3.93
103 | FC(F)(F)c1cccc(OC2CCN(Cc3ncc[nH]3)CC2)c1 | -0.255
104 | O=C1NCCCC12CCN(Cc1ccc(SC3CCCCC3)o1)C2 (stereo not given) | 5.14
105 | CC(NC(=O)Cc1cc2c(cc1Cl)OCCO2)c1ccncn1 (stereo not given) | -2.12
106 | CCc1nccn1CC(=O)N1C[C@H]2CC[C@@H]1CN(C(=O)N(C)C)C2 | -3.56
107 | Cn1cc(Cl)c(CN2CCn3nc(C(=O)N4CCCC4)cc3C2)n1 | -4.39
108 | O=C(C1CNCCO1)N1CCCC(c2ccccc2)(c2ccccc2)C1 (stereo not given) | -0.462
109 | N#Cc1cccnc1N1CCCC(CO)(Cc2ccccc2F)C1 (stereo not given) | -4.89
110 | CCCC(C)C(=O)N1CCC(c2cc(N3CCOCC3)nc(C)n2)CC1 (stereo not given) | -1.55
